Source: US7585859B2, “PDE4B inhibitors and uses therefor” (Plexxikon, Inc., priority 2004, dated 2009)
Where two headings read alike, the source gives them in different places.

Legend:
Assay type in all cases: biochemical
[1] = biological target: T1, PDE4B: The catalytic domain of human PDE4B from S152-S528 (Homo sapiens, UniProt Q07343); assay: PDE4 IC50 determination by Scintillation Proximity Assay, PDE4B
T1 construct: His6 (N); thrombin cleavage site (N); made in house; host or cells: E. coli
T1 sequence (Q07343 with tags, fused parts or gaps): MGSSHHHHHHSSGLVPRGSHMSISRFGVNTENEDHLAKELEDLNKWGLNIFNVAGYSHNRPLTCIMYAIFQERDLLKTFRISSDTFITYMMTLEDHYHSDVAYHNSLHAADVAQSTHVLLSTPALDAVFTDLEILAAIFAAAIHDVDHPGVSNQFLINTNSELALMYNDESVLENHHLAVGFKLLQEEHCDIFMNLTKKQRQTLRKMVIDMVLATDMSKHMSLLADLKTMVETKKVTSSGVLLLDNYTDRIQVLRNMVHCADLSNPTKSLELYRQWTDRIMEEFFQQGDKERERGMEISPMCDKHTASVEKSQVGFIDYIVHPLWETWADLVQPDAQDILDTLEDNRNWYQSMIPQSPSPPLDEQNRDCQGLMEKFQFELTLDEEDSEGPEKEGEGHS
Summary of the method: (§1)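 Radiometric SPA: PDE4B (80 ng/ml) or PDE4D (4 ng/ml) hydrolysed [^3H]cAMP over 30 min at 30°, and the bead-bound [^3H]AMP was scintillation-counted.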

[2] = biological target: T2, full-length human PDE4D5 isozyme (Homo sapiens, UniProt Q08499); assay: PDE4 IC50 determination by Scintillation Proximity Assay, PDE4D5; details: Table 1B, Formula I compounds; read-out: IC50 PDE4D5
T2 construct: The full-length human PDE4D5 isozyme; His6 (N); TEV cleavage site (N); made in house; host or cells: baculovirus infected insect cells (unpurified lysate)
T2 sequence (Q08499 1-745 isoform Q08499-6): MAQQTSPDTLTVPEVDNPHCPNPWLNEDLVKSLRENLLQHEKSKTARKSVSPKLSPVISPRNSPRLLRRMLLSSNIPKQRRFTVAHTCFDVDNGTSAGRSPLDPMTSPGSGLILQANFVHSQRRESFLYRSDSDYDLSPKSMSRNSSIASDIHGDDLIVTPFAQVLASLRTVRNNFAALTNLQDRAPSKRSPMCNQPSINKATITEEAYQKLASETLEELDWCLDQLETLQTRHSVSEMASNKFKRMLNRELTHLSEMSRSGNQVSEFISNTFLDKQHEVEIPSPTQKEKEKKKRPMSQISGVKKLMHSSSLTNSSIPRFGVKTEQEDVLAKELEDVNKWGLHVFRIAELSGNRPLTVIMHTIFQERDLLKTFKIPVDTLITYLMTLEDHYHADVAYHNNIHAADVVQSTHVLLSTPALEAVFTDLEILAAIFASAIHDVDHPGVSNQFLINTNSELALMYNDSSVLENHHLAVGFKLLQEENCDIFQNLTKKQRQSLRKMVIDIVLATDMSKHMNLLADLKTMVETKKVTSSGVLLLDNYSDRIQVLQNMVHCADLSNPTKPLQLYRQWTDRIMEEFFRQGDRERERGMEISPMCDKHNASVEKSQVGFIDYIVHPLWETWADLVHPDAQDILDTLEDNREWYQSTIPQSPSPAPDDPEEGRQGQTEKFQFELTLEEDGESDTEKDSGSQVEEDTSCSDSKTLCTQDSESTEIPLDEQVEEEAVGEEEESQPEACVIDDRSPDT
Experimental: (§2) IC50s were determined by Scintillation Proximity Assay (SPA). The principle of the assay is based on the fact that cAMP, the PDE4 substrate, binds weakly to Yittrium Silicate SPA beads, whereas AMP, the product of PDE4 hydrolysis binds strongly. Thus, the extent of PDE4 hydrolysis of a sample of [^3H]cAMP can be measured because only the
(§3) [^3H]AMP produced by PDE4 hydrolysis will bind to the SPA beads and produce a scintillation signal.
(§4) PDE4 enzymes used for IC50 assays were:
PDE4D5: The full-length human PDE4D5 isozyme with an N-terminal His6 tag (SEQ ID NO: 18) and TEV cleavage site expressed in baculovirus infected insect cells. The enzyme was not purified from the cell lysates, so enzyme concentrations were not determined. Enzyme was stored in 50% glycerol at −20°.
(§5) Compounds tested (see Tables 3B, 4B and 5A for compounds and results) were 3-fold serially diluted 11 times in DMSO from a starting concentration of 4 mM or 40 μM, depending on compound potency. 1 μl of each dilution was transferred into duplicate wells of a white polystyrene 384-well assay plate (Coming #3705). In addition to the compound dilutions, each assay plate contained control wells with 1 μl of DMSO (to define 0% enzyme inhibition) or 1 μl of 200 μM roflumilast (to define 100% enzyme inhibition). Using a Beckman FX robot, 10 μl of [^3H] cAMP (Amersham TRK559) at 2 mCi/ml in assay buffer (50 mM Tris, pH 7.5; 8.3 mM MgCl; 1.7 mM EGTA; 0.01% BSA) was transferred to each assay well. Next, 10 μl of PDE4 enzyme in assay buffer was added and the plates were shaken for 30 s. at 1000 rpm to start the cAMP hydrolysis reaction. The concentrations of enzyme used were: PDE4B, 80 ng/ml; PDE4D, 4 ng/ml; PDE4B2, 2.5 μl of 50% glycerol stock/ml; PDE4D5 0.083 μl of 50% glycerol stock/ml. Assay plates were covered and incubated for 30 min. at 30°. Reactions were stopped by robotic addition of 10 μl of 5 mg/ml SPA beads (Amersham RPNQ0013) in 18 mM ZnSO4. The assay plates were covered with clear plastic film, centrifuged for 1 min. at 1000 RPM to settle the SPA beads, and counted using a Wallac TriLux scintillation counter. IC50's were calculated from the raw assay data by non-linear regression curve fitting using the Assay Explorer software package from MDL.

[3] = biological target: T3, full-length human PDE4B2 isozyme (Homo sapiens, UniProt Q07343); assay: PDE4 IC50 determination by Scintillation Proximity Assay, PDE4B2
T3 construct: The full-length human PDE4B2 isozyme; His6 (N); TEV cleavage site (N); made in house; host or cells: baculovirus infected insect cells (unpurified lysate)
T3 sequence (Q07343 1-564 isoform Q07343-2): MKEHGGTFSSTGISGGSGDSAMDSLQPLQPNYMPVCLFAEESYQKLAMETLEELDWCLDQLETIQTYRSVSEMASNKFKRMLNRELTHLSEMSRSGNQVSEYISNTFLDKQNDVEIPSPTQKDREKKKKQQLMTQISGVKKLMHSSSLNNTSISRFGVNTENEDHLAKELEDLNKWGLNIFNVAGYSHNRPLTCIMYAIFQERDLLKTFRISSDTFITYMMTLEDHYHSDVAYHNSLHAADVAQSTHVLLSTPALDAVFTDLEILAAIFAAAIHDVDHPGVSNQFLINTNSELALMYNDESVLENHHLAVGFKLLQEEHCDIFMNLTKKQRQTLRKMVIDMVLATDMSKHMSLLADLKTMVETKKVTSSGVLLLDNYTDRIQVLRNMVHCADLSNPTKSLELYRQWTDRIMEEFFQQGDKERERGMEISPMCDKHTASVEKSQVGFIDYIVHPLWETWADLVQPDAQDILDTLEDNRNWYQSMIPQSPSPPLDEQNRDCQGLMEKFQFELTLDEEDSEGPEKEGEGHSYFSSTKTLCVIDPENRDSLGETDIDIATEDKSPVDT
Experimental: as §2, §3, §4
PDE4B2: The full-length human PDE4B2 isozyme with an N-terminal His6 tag (SEQ ID NO: 18) and TEV cleavage site expressed in baculovirus infected insect cells. The enzyme was not purified from the cell lysates, so enzyme concentrations were not determined. Enzyme was stored in 50% glycerol at −20°.
as §5

PDE4D = biological target: T4, PDE4D (Homo sapiens, UniProt Q08499); assay: PDE4 IC50 determination by Scintillation Proximity Assay, PDE4D
T4 construct: PDE4D: The catalytic domain of human PDE4B from S3 16-V692; His6 (N); thrombin cleavage site (N); made in house; host or cells: E. coli
T4 sequence (Q08499 380-756): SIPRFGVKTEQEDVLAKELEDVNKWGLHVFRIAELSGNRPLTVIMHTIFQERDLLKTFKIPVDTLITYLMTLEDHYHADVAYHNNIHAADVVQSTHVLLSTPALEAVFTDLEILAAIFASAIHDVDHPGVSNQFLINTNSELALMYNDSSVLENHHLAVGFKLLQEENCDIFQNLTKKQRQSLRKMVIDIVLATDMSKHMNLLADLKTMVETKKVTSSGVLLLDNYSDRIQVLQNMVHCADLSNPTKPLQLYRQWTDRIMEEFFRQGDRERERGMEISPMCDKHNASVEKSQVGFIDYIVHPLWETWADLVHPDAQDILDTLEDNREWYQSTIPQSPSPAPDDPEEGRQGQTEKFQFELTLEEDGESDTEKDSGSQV
Summary of the method: as §1

[4] = Table 1B, Formula I compounds, read-out: IC50 PDE4B
[5] = Table 1B, Formula I compounds, read-out: IC50 PDE4B2
[6] = Table 1B, Formula I compounds, read-out: IC50 PDE4D

| SMILES | IC50 [1, 4] [µM] | IC50 [2] [µM] | IC50 [3, 5] [µM] | IC50 (PDE4D; [6]) [µM] | IC50 ([1]; second part of Table 2B (2-23 to 2-103), column 3, column is PDE4B in first part, read-out: IC 50 vs. indicated assay h TNFα) [µM] | IC50 ([3]; second part of Table 2B (2-23 to 2-103), column 4, column is PDE4B2 in first part, read-out: IC 50 vs. indicated assay h TNFα) [µM] | IC50 (PDE4D; second part of Table 2B (2-23 to 2-103), column 5, column is PDE4D in first part, read-out: IC 50 vs. indicated assay h TNFα) [µM] |
| --- | --- | --- | --- | --- | --- | --- | --- |
| CCOC(=O)c1c(Nc2ccccc2OC)sc(C(=O)c2ccc(Br)cc2)c1N [Compound 1-1, 4-Amino-5-(4-bromo-benzoyl)-2-(2-methoxy-phenylamino)-thiophene-3-carboxylic acid ethyl ester] | < 10 | < 10 | < 10 | < 10 |  |  |  |
| CCOC(=O)c1c(Nc2ccccc2F)sc(C(=O)c2ccc(Cl)cc2)c1N [Compound 1-22, 4-Amino-5-(4-chloro-benzoyl)-2-(2-fluoro-phenylamino)-thiophene-3-carboxylic acid ethyl ester] | < 10 | < 10 | < 10 | < 10 |  |  |  |
| COc1ccc(C(=O)c2sc(NC3CCCC3)c(C#N)c2N)c(OC)c1 [Compound 1-43, 4-Amino-2-cyclopentylamino-5-(2,4-dimethoxy-benzoyl)-thiophene-3-carbonitrile] | < 10 | < 10 | < 10 | < 10 |  |  |  |
| Cc1c(C(=O)c2sc(NC3CCCC3)c(C#N)c2N)cnn1-c1ccccc1 [Compound 1-55, 4-Amino-2-cyclopentylamino-5-(5-methyl-1-phenyl-1H-pyrazole-4-carbonyl)-thiophene-3-carbonitrile] | < 10 | < 10 | < 10 | < 10 |  |  |  |
| Cc1c(C(=O)c2sc(NCC3CCCO3)c(C#N)c2N)cnn1-c1ccccc1 (centres unmarked) [Compound 1-57, 4-Amino-5-(5-methyl-1-phenyl-1H-pyrazole-4-carbonyl)-2-[(tetrahydro-furan-2-ylmethyl)-amino]-thiophene-3-carbonitrile] | > 10 | > 10 | > 10 | < 10 |  |  |  |
| COc1ccc(Nc2sc(C(=O)c3cc(-c4ccc(Cl)cc4Cl)no3)c(N)c2C#N)cc1 [Compound 1-164, 4-Amino-5-[3-(2,4-dichloro-phenyl)-isoxazole-5-carbonyl]-2-(4-methoxy-phenylamino)-thiophene-3-carbonitrile] | < 10 | > 10 |  | < 10 |  |  |  |
| CC(C)NC(=O)c1cc(C(=O)c2sc(NC3CCCC3)c(C#N)c2N)on1 [Compound 1-189, 5-(3-Amino-4-cyano-5-cyclopentylamino-thiophene-2-carbonyl)-isoxazole-3-carboxylic acid isopropylamide] | < 10 | < 10 |  | < 10 |  |  |  |
| N#Cc1c(NC2CCCC2)sc(C(=O)c2cc(C(=O)NC3CC3)no2)c1N [Compound 1-190, 5-(3-Amino-4-cyano-5-cyclopentylamino-thiophene-2-carbonyl)-isoxazole-3-carboxylic acid cyclopropylamide] | < 10 | < 10 |  | < 10 |  |  |  |
| Nc1c(C(=O)c2cc(-c3ccccc3)no2)sc(NC2CCCC2)c1C(=O)O [Compound 1-237, 4-Amino-2-cyclopentylamino-5-(3-phenyl-isoxazole-5-carbonyl)-thiophene-3-carboxylic acid] | < 10 | < 10 | < 10 |  |  |  |  |
| CC(C)C(C)Nc1sc(C(=O)c2cc(-c3ccc(Cl)c(Cl)c3)no2)c(N)c1C#N (centres unmarked) [Compound 1-246, 4-Amino-5-[3-(3,4-dichloro-phenyl)-isoxazole-5-carbonyl]-2-(1,2-dimethyl-propylamino)-thiophene-3-carbonitrile] | < 10 | > 10 |  | > 10 |  |  |  |
| Nc1nc(Nc2ccc(Cl)cc2)sc1C(=O)C1CCCC1 [Compound 2-92, [4-Amino-2-(4-chloro-phenylamino)-thiazol-5-yl]-cyclopentyl-methanone] |  |  |  |  | < 10 | < 10 | < 10 |

Results, then the compound that gave them:

| IC50 [1, 4] [µM] | IC50 [2] [µM] | IC50 [3, 5] [µM] | IC50 (PDE4D; [6]) [µM] | IC50 ([1]; second part of Table 2B (2-23 to 2-103), column 3, column is PDE4B in first part, read-out: IC 50 vs. indicated assay h TNFα) [µM] | IC50 ([3]; second part of Table 2B (2-23 to 2-103), column 4, column is PDE4B2 in first part, read-out: IC 50 vs. indicated assay h TNFα) [µM] | IC50 (PDE4D; second part of Table 2B (2-23 to 2-103), column 5, column is PDE4D in first part, read-out: IC 50 vs. indicated assay h TNFα) [µM] | SMILES |
| --- | --- | --- | --- | --- | --- | --- | --- |
| < 10 | < 10 | < 10 | < 10 |  |  |  | COc1ccccc1Nc1sc(C(=O)c2ccc(C)cc2)c(N)c1C#N [Compound 1-2, 4-Amino-2-(2-methoxy-phenylamino)-5-(4-methyl-benzoyl)-thiophene-3-carbonitrile] |
| > 10 | > 10 | > 10 | > 10 |  |  |  | NC(=O)c1c(Nc2ccccc2)sc(C(=O)c2ccccc2)c1N [Compound 1-12, 4-Amino-5-benzoyl-2-phenylamino-thiophene-3-carboxylic acid amide] |
| < 10 | > 10 | > 10 | > 10 |  |  |  | N#Cc1c(Nc2ccccc2)sc(C(=O)c2ccccc2)c1N [Compound 1-16, 4-Amino-5-benzoyl-2-phenylamino-thiophene-3-carbonitrile] |
| < 10 | < 10 | < 10 | < 10 |  |  |  | N#Cc1c(Nc2ccc(Cl)cc2)sc(C(=O)c2sccc2Cl)c1N [Compound 1-17, 4-Amino-2-(4-chloro-phenylamino)-5-(3-chloro-thiophene-2-carbonyl)-thiophene-3-carbonitrile] |
| < 10 | < 10 | < 10 | < 10 |  |  |  | N#Cc1c(Nc2ccc(Cl)cc2)sc(C(=O)c2ccc(Cl)cc2Cl)c1N [Compound 1-18, 4-Amino-2-(4-chloro-phenylamino)-5-(2,4-dichloro-benzoyl)-thiophene-3-carbonitrile] |
| < 10 | < 10 | < 10 | < 10 |  |  |  | CCOC(=O)c1c(Nc2ccccc2OC)sc(C(=O)c2ccccc2)c1N [Compound 1-21, 4-Amino-5-benzoyl-2-(2-methoxy-phenylamino)-thiophene-3-carboxylic acid ethyl ester] |
| < 10 | < 10 | < 10 | < 10 |  |  |  | COc1ccc(Nc2sc(C(=O)c3cnn(-c4ccccc4)c3C)c(N)c2C#N)cc1 [Compound 1-50, 4-Amino-2-(4-methoxy-phenylamino)-5-(5-methyl-1-phenyl-1H-pyrazole-4-carbonyl)-thiophene-3-carbonitrile] |
| < 10 | < 10 |  |  |  |  |  | N#Cc1c(Nc2ccc(Oc3ccccc3)cc2)sc(C(=O)C2CCCC2)c1N [Compound 1-195, 4-Amino-5-cyclopentanecarbonyl-2-(4-phenoxy-phenylamino)-thiophene-3-carbonitrile] |
| < 10 | < 10 | < 10 |  |  |  |  | Cc1c(Nc2ccccc2)sc(C(=O)c2ccc(Cl)cc2)c1N [Compound 1-238, (3-Amino-4-methyl-5-phenylamino-thiophen-2-yl)-(4-chloro-phenyl)-methanone] |
| < 10 | > 10 | > 10 |  |  |  |  | Cc1c(Nc2ccc(Oc3ccccc3)cc2)sc(C(=O)c2ccccc2)c1N [Compound 1-239, [3-Amino-4-methyl-5-(4-phenoxy-phenylamino)-thiophen-2-yl]-phenyl-methanone] |
| < 10 | > 10 | < 10 |  |  |  |  | CCc1c(Nc2ccc(Oc3ccccc3)cc2)sc(C(=O)c2ccccc2)c1N [Compound 1-243, [3-Amino-5-ethyl-5-(4-phenoxy-phenylamino)-thiophen-2-yl]-phenyl-methanone] |
